Test results as given in patent publication US10834943B2, “Organic compounds having taste-modifying properties” (GIVAUDAN SA, priority 2013, dated 2020).

Assay: Mango-flavoured beverage evaluated by a panel of experienced tasters
Conditions: 0.5 ppm dosed to mango drink (mango flavour 0.05% w/w, mango juice 0.18% w/w, sugar 8% w/w, citric acid 0.1% w/w)
Procedure: A mango-flavoured beverage was prepared using a standard mango flavour (0.05% w/w), mango juice (0.18% w/w), sugar (8% w/w) and citric acid (0.1% w/w).

| Compound | taste of the mango drink versus the reference drink (panel agreement) |
| --- | --- |
| CC/C=C\C/C=C\C/C=C\CCCCCCCC(=O)NC(C)C(=O)OC (centres unmarked) [Example 7, Methyl 2-((9Z,12Z,15Z)-octadeca-9,12,15-trienamido)propanoate] | more fully, more fatty than the reference drink |
| CCCCC/C=C\C/C=C\CCCCCCCC(=O)N1CCCC1C(=O)OC (centres unmarked) [Example 6, Methyl 1-((9Z,12Z)-octadeca-9,12-dienoyl)pyrrolidine-2-carboxylate] | more fruity and peach-like than the reference drink |
